Measurements: article PMC5651866, “Halogenated Chrysins Inhibit Dengue and Zika Virus Infectivity” (Scientific Reports, 2017)

What was measured:
[1] = Viability of DENV2/BHK-21 replicon cells; assay type: cell-based; conditions: hamster, 5 and 10 µM, read-out: viable replicon cells
Description: Next, we studied FV13 inhibition in a DENV2 replicon replication system to investigate whether translation and replication could be implicated as drug targets. BHK-21/DENV2 replicon cells[28] were treated with 5 and 10 µM FV13 and incubated for 72 h before measuring replication efficiency by quantifying replicon RNA. Ribavirin, a known dengue virus replication inhibitor[29], was used as a positive control.
Figure 6 Replicon inhibition study. (A) DENV2/BHK-21 replicon cells were treated with FV13 or ribavirin for 72 h. Percent inhibition was calculated from RT-qPCR of extracted RNA. Error bars represented standard error of means (SEM) from two independent experiments with triplicate samples. Asterisks indicated statistical significance in paired t-test as follows; *p-value < 0.05, **p-value < 0.01, ***p-value < 0.001 compared to 1% DMSO negative control. (B) Percent DENV2/BHK-21 replicon cell viability at 72 h under 5 and 10 µM FV13 treatment. Error bars represented standard error of means (SEM) from three independent experiments, in which each experiment was performed in triplicate.

DENV1 (16007) = test: Antiviral efficacy (EC50) in virus infected LLC/MK2 cells, plaque assay; assay type: cell-based, Dengue virus
Description: (§2) Compound at various concentrations were added to virus infected LLC/MK2 cells and viral titers were accessed by plaque titration of supernatants as previously described.
(§3) LLC/MK2 cells were seeded at 5 × 10^4 cells into each well of 24-well plate and incubated overnight at 37 °C under 5% CO2. Cells were infected with DENV2 at the multiplicity of infection (M.O.I.) of 0.1, unless indicated otherwise, for 1 h with gentle rocking every 15 min. Cells were washed with phosphate buffer saline (PBS) and incubated with 1 ml of MEM medium supplemented with 1% FBS as previously described. The compounds were prepared in dimethylsulfoxide (DMSO) at the indicated concentrations before addition to viral infected cells. Supernatants were collected after 5 day incubation and analyzed by plaque titration[9].
(§4) Compounds were prepared in DMSO at 8–12 different concentrations and added to virus infected cells as previously described. Supernatants were collected and the EC50 values were calculated from nonlinear regression analysis.

[2] = Cytotoxicity study (CellTiter 96 AQueous One) in THP-1 cells; assay type: cell-based; conditions: human, THP-1 cells, read-out: Cells viability (%, means ± SEM) THP-1
Description: (§1) The cytotoxicity of active compounds was tested on LLC-MK2, Vero, THP-1, HEK-293, HepG2 and C6/36 cell lines. Each cell line was seeded at 1 × 10^4 cells per well in 96-well plates and incubated overnight. The compounds were added at the indicated concentrations and the cells were incubated for 48 h, unless indicated otherwise. Cell viability was analyzed using CellTiter 96® AQueous One Solution Cell Proliferation Assay kit (Promega, Wisconsin-Madison, USA) according to manufacturer’s protocol. The plate was read at the A 450 in a VICTORTM × 3 microplate reader (PerkinElmer, Massachusetts, USA). Percent cell viability in compound-treated wells was calculated using reference DMSO-treated cells as a 100% cell viability control. The CC50 values of LLC/MK2 cells were calculated using nonlinear regression analysis. Results were reported as means and standard error of the means (SEM) of CC50 values of three independent experiments in which each drug concentration was tested in triplicate.

LLC/MK2 cells = test: Cytotoxicity study (CellTiter 96 AQueous One) in LLC/MK2 cells; assay type: cell-based; conditions: LLC/MK2 cell viability at 120 h versus 48 h; in words
Description: as §1

[3] = as above; assay type: cell-based; conditions: rhesus monkey, LLC/MK2 cells
Description: as §1

[4] = Stability of compound in DMSO at room temperature by 1H-NMR; assay type: physicochemical; conditions: 4 mM in DMSO, sampled at 24, 72, 120 h
Description: The FV13 (6,8-dibromo-5,7-dihydroxyflavone) was tested for the stability by dissolving in DMSO at a concentration of 4 mM FV13 solution. The solution was incubated at room temperature and sampled out at 24, 72, and 120 hours for ^1H-NMR analysis.

DENV2 = test: Attachment inhibition study, DENV2 with LLC/MK2 cells; assay type: cell-based, Dengue virus; conditions: 10 µM
Description: We further explored whether the compound would block the viral infectivity by neutralization. We set up the attachment inhibition assay by incubating DENV2 with LLC/MK2 cells at 4 °C for 1 h and FV13 was added before adsorption (pre-attachment), simultaneous with adsorption (co-attachment), and after adsorption (post-attachment) (Fig. 5A). DMSO was used as a mock treatment and added in parallel to FV13 to the experiment. Cells were incubated until cytopathic effects appeared under microscope (Fig. 5B). Supernatants and cells were then analyzed by plaque titration (Fig. 5C) and RT-qPCR (Fig. 5D), respectively. […] Therefore, the major targets of FV13 inhibition appear to function after attachment, possibly at the fusion or translation steps. […] (Supplementary 1). Therefore, fusion was unlikely the major target of FV13. We concluded that one of the major targets of FV13 functions early after infection and attachment and fusion are not critically affected. Flavivirus translation initiates within 1 to 5 hpi[26].
After supernatant collection, the remaining cells in experimental plates were extracted for viral RNAs using TRIzol reagent (Invitrogen, California, USA) according to the manufacturer’s protocol. The samples were loaded into the Direct-zol™ RNA MiniPrep (Zymo research, California, USA) and quantified by Nanodrop spectrophotometry (Eppendorf, New York, USA). The RT-qPCR was performed with a Step-OnePlus Real-Time PCR System (Applied Biosystems, California, USA.) with 1 × Power SYBRGreen PCR Master Mix, 400 nM each of capsid primers[40] or 250 nM of NS1 primers[41] and 0.1 µg of total RNA. The reactions were then cycled at 48 °C 30 min and 95 °C 10 min, followed by 45 cycles of 95 °C for 20 s (denaturation), 55 °C for 30 s (annealing), 72 °C for 30 s (extension). Each sample was analyzed in triplicated and results were confirmed by two independent experiments.
The attachment assay was adapted from Lani et al., 2016 and Jin et al., 2015 [42],[43]. Briefly, LLC/MK2 cells were seeded in 24-well plates and incubated as previously described. […]

DENV4 (c0036) = test: Antiviral efficacy (EC50) in virus infected LLC/MK2 cells, plaque assay; assay type: cell-based, Dengue virus
Description: as §2, §3, §4

[5] = Cytotoxicity study, summary statements over human-derived cell lines; assay type: cell-based; conditions: HepG2 and HEK-293 cells, THP-1, HepG2, HEK-293, 10 and 25 µM, Table 2
Description: as §1

[6] = Cytotoxicity study (CellTiter 96 AQueous One) in HepG2 cells; assay type: cell-based; conditions: human, HepG2 cells, read-out: Cells viability (%, means ± SEM) HepG2
Description: as §1

For `O=c1cc(-c2ccccc2)oc2c(Br)c(O)c(Br)c(O)c12` [FV13, 6,8-dibromo-5,7-dihydroxyflavone], the viability at 72 h [1] was > 99%, the “S.I. Selectivity index (CC50/EC50)” value (DENV1 (16007); DENV1 (16007), CC50 in LLC/MK2) was 19.42 and the EC50 (DENV1 (16007); Dengue virus, DENV1, LLC-MK2) was 2300 ± 1040 nM. For the same compound, the viability at 48 h, 10 µM ([2]; 10 μM) was > 100%, the viability at 48 h, 25 µM ([2]; 25 μM) was 86.9 ± 2.1% and the “effect of long term incubation on cytotoxicity” value (LLC/MK2 cells) was “similarly non-toxic at both 48 and 120 h”. The viability at 48 h, 10 µM ([3]; 10 μM, 48 h, read-out: Cells viability (%, means ± SEM) LLC/MK2) was 81 ± 2.69%, the viability at 48 h, 25 µM ([3]; 25 μM, 48 h, read-out: Cells viability (%, means ± SEM) LLC/MK2) was 59.4 ± 2.42% and the CC50 at 48 h ([3]; 48 h incubation, read-out: CC50 (cytotoxic concentration)) was 44300 ± 2900 nM. For the same compound, the “stability (no decomposition by NMR)” value [4] was “at least 120 h”, the “viral RNA reduction” value (DENV2; post-attachment, intracellular RNA, RT-qPCR) was 64.07 ± 3.37% and the plaque titer reduction (DENV2; post-attachment, supernatants, 2 days) was 40.59 ± 2.83%. The “interference with pre- or co-attachment steps” value (DENV2; pre-attachment and co-attachment, in words) was “did not interfere with either pre- or co-attachment steps”, the “S.I. Selectivity index (CC50/EC50)” value (DENV4 (c0036); DENV4 (c0036), CC50 in LLC/MK2) was 25.12 and the EC50 (DENV4 (c0036); Dengue virus, DENV4, LLC-MK2) was 1780 ± 720 nM. For the same compound, the viability at 48 h [5] was > 80%, the viability at 48 h, 10 µM ([6]; 10 μM) was 85.8 ± 4.7% and the viability at 48 h, 25 µM ([6]; 25 μM) was 84.6 ± 2.79%.
